Source: US5972894A, “Peptides having potassium channel opener activity” (Cytran, Inc., priority 1997, dated 1999)
Residues, ends and D or L forms follow the SMILES beside them.

System: ischemic myocardium
Assay: Inotropic function and arrhythmias of ischemic isolated rat heart during reperfusion
Settings: for -dp/dtmax, % of preischemic value: by the 30th minute of reperfusion
Text: Rat hearts were surgically isolated from white random-bred rats weighing approximately 250 g. The isolated hearts were perfused with a standard oxygenated (95% O2 and 5% CO2) Krebs-Henseleit solution in a retrograde manner (i.e., according to Langendorff and using a constant perfusate pressure of 80 cm of water). The hearts maintained a steady spontaneous contraction rate. A latex balloon catheter connected to a pressure transducer (EMT-746, Siemens-Elema, Sweden) was inserted into the left ventricle of each heart to measure the inotropic function of the heart (as described in Example 3, above). The left ventricle pressure variation curve was recorded using a polygraph.
Stage I ("adaptation regimen") consisted of a 30-minute adaptation of the respective rat hearts to the perfusion regimen. The baseline parameters for the inotropic function of each heart were recorded to establish the preischemic values for the following measured parameters: (i) the systolic pressure in the left ventricle (Psyst. mm Hg); (ii) the diastolic pressure in the left ventricle (Pdiast. mm Hg); (iii) the evolving pressure (Pev. =Psyst. -Pdist. mm Hg); (iv) the maximal rate of increase of left ventricle pressure (+dp/dtmax mm Hg/sec); and (v) the maximal rate of decrease of left ventricle pressure (-dp/dtmax mm Hg/sec). In addition, the heart rate (HR) of each heart was determined from the recordings made of the variations in the left ventricle pressure over time. In Stage II ("ischemic simulation"), ischemia was induced in each heart by shutting off the supply of the perfusion solution to the heart. Approximately 30 minutes later, Stage III ("reperfusion regimen") was initiated by restarting the reperfusion and including in the perfusate solution a test or control substance at one of the following respective concentrations: a perfusate solution of a test substance comprised 0.06, 0.6, or 6.0 mg/l GE, or 0.06, 0.6, or 6.0 mg/l VT, respectively; a perfusate solution of the positive control substance comprised 14 mg/l inosine. Inosine is a nucleoside preparation that produces a favorable inotropic effect on both normal and ischemic myocardium while inducing no rhythm disturbances or acceleration of ischemic contracture development. Woollard et al., Cardiovasc. Res. 15: 659-67 (1981). Inosine was obtained from Sigma Chemical Company, USA (Cat. Code I-4125; lot number 81H0227). The negative control substance comprised reperfusion using a standard oxygenated Krebs-Henseleit solution.
For each heart, the inotropic function of the myocardium was evaluated by measuring the parameters (i) through (v), discussed above, and the heart rate. These six parameters were recorded continuously throughout the study (i.e., beginning with Stage I and continuing through Stage III). The recordings were analyzed at the following times: (a) immediately before beginning Stage II (that is, after the 30-minute Stage I adaptation period, but before stopping perfusion); and (b) at 1, 5, 10, 20, and 30 minutes into the Stage III reperfusion.
The frequency and duration of rhythm disturbances in the 30-minute Stage III reperfusion period were determined by measuring the following parameters: (i) the number of ventricular extrasystoles; (ii) the overall duration of ventricular tachycardias (in seconds); and (iii) the overall duration of ventricular fibrillation (in seconds). Each dose of the test substance was tested on nine isolated hearts.

[1] = 6.0 mg/l, 30-minute reperfusion

`NCC(=O)N[C@@H](CCC(=O)O)C(=O)O` [GE, L-Glycyl-L-Glutamic acid] (H-Gly-Glu-OH) was tested, and the “Systolic Pressure in Ischemic Left Ventricle (% of Preischemic Values)” value (“Systolic Pressure … (% of Preischemic Values)” for short) (0.6 mg/l, 10 min reperfusion) was 88.40%, the “Diastolic Pressure in Ischemic Left Ventricle (% of Preischemic Mean Value)” value (0.6 mg/l, 20 min reperfusion) was 99.28% and the “Evolving Pressure in Ischemic Left Ventricle (% of Preischemic Mean Value)” value (0.6 mg/l, 20 min reperfusion) was 78.42%. For the same compound, the “Heart Rate during Reperfusion (% of Preischemic Mean Value)” value (0.6 mg/l, 20 min reperfusion) was 91.53%, the “Maximal Rate of Increase of Left Ventricle Pressure (% of Preischemic Mean Value)” value (0.6 mg/l, 20 min reperfusion) was 81.12% and the “Maximal Rate of Left Ventricle Pressure Decrease (% of Preischemic Mean Value)” value (0.6 mg/l, 20 min reperfusion) was 84.10%. The “Systolic Pressure … (% of Preischemic Values)” value (0.6 mg/l, 20 min reperfusion) was 82.35%, the “Diastolic Pressure in Ischemic Left Ventricle (% of Preischemic Mean Value)” value (0.6 mg/l, 30 min reperfusion) was 127.06% and the “Evolving Pressure in Ischemic Left Ventricle (% of Preischemic Mean Value)” value (0.6 mg/l, 30 min reperfusion) was 87.22%. The “Heart Rate during Reperfusion (% of Preischemic Mean Value)” value (0.6 mg/l, 30 min reperfusion) was 106.61%, the “Maximal Rate of Increase of Left Ventricle Pressure (% of Preischemic Mean Value)” value (0.6 mg/l, 30 min reperfusion) was 97.62% and the “Maximal Rate of Left Ventricle Pressure Decrease (% of Preischemic Mean Value)” value (0.6 mg/l, 30 min reperfusion) was 91.20%. The “Systolic Pressure … (% of Preischemic Values)” value (0.6 mg/l, 30 min reperfusion) was 91.89%, the “restoration of +dp/dtmax” value (0.6 mg/l, after 30 minutes of reperfusion) was “nearly to its preischemic level” and the “evolving pressure, % of preischemic level” value (0.6 mg/l, after about 20 or about 30 minutes of reperfusion, respectively) was ≥ 85%. For the same compound, the “-dp/dtmax, % of preischemic value” (0.6 mg/l) was “greater than 90%”, the “Number of Ventricular Extrasystoles” value [1] was 174.9 and the “Overall Duration of Ventricular Fibrillation” value [1] was 79.6 s. For the same compound, the “Overall Duration of Ventricular Tachycardia” value [1] was 5.2 s, the “Diastolic Pressure in Ischemic Left Ventricle (% of Preischemic Mean Value)” value (6.0 mg/l, 1 min reperfusion) was 53.97% and the “Evolving Pressure in Ischemic Left Ventricle (% of Preischemic Mean Value)” value (6.0 mg/l, 1 min reperfusion) was 78.34%. The “Heart Rate during Reperfusion (% of Preischemic Mean Value)” value (6.0 mg/l, 1 min reperfusion) was 38.86%, the “Maximal Rate of Increase of Left Ventricle Pressure (% of Preischemic Mean Value)” value (6.0 mg/l, 1 min reperfusion) was 71.18% and the “Maximal Rate of Left Ventricle Pressure Decrease (% of Preischemic Mean Value)” value (6.0 mg/l, 1 min reperfusion) was 59.93%. The “Systolic Pressure … (% of Preischemic Values)” value (6.0 mg/l, 1 min reperfusion) was 72.87%, the “Diastolic Pressure in Ischemic Left Ventricle (% of Preischemic Mean Value)” value (6.0 mg/l, 5 min reperfusion) was 65.08% and the “Evolving Pressure in Ischemic Left Ventricle (% of Preischemic Mean Value)” value (6.0 mg/l, 5 min reperfusion) was 68.80%. For the same compound, the “Heart Rate during Reperfusion (% of Preischemic Mean Value)” value (6.0 mg/l, 5 min reperfusion) was 55.65%, the “Maximal Rate of Increase of Left Ventricle Pressure (% of Preischemic Mean Value)” value (6.0 mg/l, 5 min reperfusion) was 68.10% and the “Maximal Rate of Left Ventricle Pressure Decrease (% of Preischemic Mean Value)” value (6.0 mg/l, 5 min reperfusion) was 70.76%. For the same compound, the “Systolic Pressure … (% of Preischemic Values)” value (6.0 mg/l, 5 min reperfusion) was 67.10%, the “Diastolic Pressure in Ischemic Left Ventricle (% of Preischemic Mean Value)” value (6.0 mg/l, 10 min reperfusion) was 103.17% and the “Evolving Pressure in Ischemic Left Ventricle (% of Preischemic Mean Value)” value (6.0 mg/l, 10 min reperfusion) was 74.86%. For the same compound, the “Heart Rate during Reperfusion (% of Preischemic Mean Value)” value (6.0 mg/l, 10 min reperfusion) was 82.12%, the “Maximal Rate of Increase of Left Ventricle Pressure (% of Preischemic Mean Value)” value (6.0 mg/l, 10 min reperfusion) was 77.78% and the “Maximal Rate of Left Ventricle Pressure Decrease (% of Preischemic Mean Value)” value (6.0 mg/l, 10 min reperfusion) was 93.15%. The “Systolic Pressure … (% of Preischemic Values)” value (6.0 mg/l, 10 min reperfusion) was 77.71%, the “Diastolic Pressure in Ischemic Left Ventricle (% of Preischemic Mean Value)” value (6.0 mg/l, 20 min reperfusion) was 83.98% and the “Evolving Pressure in Ischemic Left Ventricle (% of Preischemic Mean Value)” value (6.0 mg/l, 20 min reperfusion) was 78.47%. The “Heart Rate during Reperfusion (% of Preischemic Mean Value)” value (6.0 mg/l, 20 min reperfusion) was 77.12%, the “Maximal Rate of Increase of Left Ventricle Pressure (% of Preischemic Mean Value)” value (6.0 mg/l, 20 min reperfusion) was 82.47% and the “Maximal Rate of Left Ventricle Pressure Decrease (% of Preischemic Mean Value)” value (6.0 mg/l, 20 min reperfusion) was 95.32%. For the same compound, the “Systolic Pressure … (% of Preischemic Values)” value (6.0 mg/l, 20 min reperfusion) was 77.71%, the “Diastolic Pressure in Ischemic Left Ventricle (% of Preischemic Mean Value)” value (6.0 mg/l, 30 min reperfusion) was 132.47% and the “Evolving Pressure in Ischemic Left Ventricle (% of Preischemic Mean Value)” value (6.0 mg/l, 30 min reperfusion) was 73.08%. For the same compound, the “Heart Rate during Reperfusion (% of Preischemic Mean Value)” value (6.0 mg/l, 30 min reperfusion) was 63.29%, the “Maximal Rate of Increase of Left Ventricle Pressure (% of Preischemic Mean Value)” value (6.0 mg/l, 30 min reperfusion) was 74.49% and the “Maximal Rate of Left Ventricle Pressure Decrease (% of Preischemic Mean Value)” value (6.0 mg/l, 30 min reperfusion) was 93.07%. For the same compound, the “Systolic Pressure … (% of Preischemic Values)” value (6.0 mg/l, 30 min reperfusion) was 79.73%, the “-dp/dtmax, % of preischemic value” (6.0 mg/l) was “greater than 90%” and the “arrhythmogenic effect during reperfusion” value (0.06-6.0 mg/l) was “Neither GE nor VT was found to have an arrhythmogenic effect”. For the same compound, the “effect on systolic pressure drop” value (0.06 and 0.6 mg/l) was “prevented the dramatic drop in systolic pressure”, the “chronotropic effect on heart rate” value (0.06 and 6.0 mg/l) was “moderate negative chronotropic effect” and the “effect on diastolic pressure increase” value (reperfusion) was “prevented the increase in diastolic pressure”.
